Measured values taken from paper PMC5677090, “Multiple Behavior Phenotypes of the Fragile-X Syndrome Mouse Model Respond to Chronic Inhibition of Phosphodiesterase-4D (PDE4D)” (Scientific Reports, 2017).

Target: T1, PDE4B (Mus musculus, UniProt Q8VBU5)
T1 sequence (Q8VBU5 1-721): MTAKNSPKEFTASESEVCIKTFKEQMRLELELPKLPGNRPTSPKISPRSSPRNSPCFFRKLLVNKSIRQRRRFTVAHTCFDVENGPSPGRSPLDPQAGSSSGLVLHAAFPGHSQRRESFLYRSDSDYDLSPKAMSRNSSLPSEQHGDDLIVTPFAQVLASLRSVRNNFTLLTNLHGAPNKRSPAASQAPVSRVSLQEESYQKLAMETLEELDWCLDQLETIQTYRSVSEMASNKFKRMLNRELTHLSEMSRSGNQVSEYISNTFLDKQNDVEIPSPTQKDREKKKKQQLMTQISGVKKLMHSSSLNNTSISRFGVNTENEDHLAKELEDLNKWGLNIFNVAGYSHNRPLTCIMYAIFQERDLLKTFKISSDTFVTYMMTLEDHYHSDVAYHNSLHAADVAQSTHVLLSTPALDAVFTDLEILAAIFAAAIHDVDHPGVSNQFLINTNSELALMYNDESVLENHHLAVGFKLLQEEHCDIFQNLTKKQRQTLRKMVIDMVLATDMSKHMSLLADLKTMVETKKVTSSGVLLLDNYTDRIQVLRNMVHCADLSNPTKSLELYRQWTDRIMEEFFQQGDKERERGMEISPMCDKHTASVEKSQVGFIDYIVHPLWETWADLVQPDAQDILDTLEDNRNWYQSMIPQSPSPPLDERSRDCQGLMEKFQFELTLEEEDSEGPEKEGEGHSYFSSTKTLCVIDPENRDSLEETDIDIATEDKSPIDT
Assay: PDE4B inhibition IC50, selectivity comparison (assay details not given)
Format: biochemical

O=C(O)Cc1ccc(Cc2cc(-c3cccc(Cl)c3)nc(C(F)(F)F)c2)cc1 [BPN14770]
IC50: 2.12 µM
